Where two headings read alike, the source gives them in different places.
Molecular target: T1, ER (Homo sapiens, UniProt P03372)
T1 construct: host or cells: T47D and MCF7 human breast cancer cells
T1 sequence (P03372 1-595): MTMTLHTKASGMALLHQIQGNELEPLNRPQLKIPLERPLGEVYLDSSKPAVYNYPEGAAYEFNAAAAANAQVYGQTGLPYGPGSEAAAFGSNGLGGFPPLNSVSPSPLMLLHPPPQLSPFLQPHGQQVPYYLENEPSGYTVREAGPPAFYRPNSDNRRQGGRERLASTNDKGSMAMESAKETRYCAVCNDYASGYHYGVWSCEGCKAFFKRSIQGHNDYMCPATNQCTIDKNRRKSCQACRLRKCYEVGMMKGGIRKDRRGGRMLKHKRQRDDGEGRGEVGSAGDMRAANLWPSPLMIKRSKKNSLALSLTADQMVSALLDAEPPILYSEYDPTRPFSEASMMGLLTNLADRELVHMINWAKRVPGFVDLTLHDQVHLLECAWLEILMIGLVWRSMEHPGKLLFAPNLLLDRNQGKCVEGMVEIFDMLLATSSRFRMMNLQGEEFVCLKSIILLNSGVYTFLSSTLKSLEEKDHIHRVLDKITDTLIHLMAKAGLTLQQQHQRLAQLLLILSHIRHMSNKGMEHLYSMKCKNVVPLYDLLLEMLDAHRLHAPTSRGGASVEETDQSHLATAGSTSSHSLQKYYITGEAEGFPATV
Assay: ER degradation activity, in-cell western blot analysis in T47D cells
Format: cell-based
In short: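 Read-out is near-infrared fluorescence from an in-cell western, expressed as ER percentage relative to untreated and DMSO controls taken as 100%. T47D breast cancer cells received compound for 16 h in 0.5% DMSO.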

[1] = 16 hours, Table A does not say which cell line (T47D or MCF7), read-out: Potency (DC50)
[2] = compounds 16 hours, Table A does not say whether T47D or MCF7, read-out: Potency (DC50)

| Compound | DC50 [1] | DC50 [2] |
| --- | --- | --- |
| C[C@@H]1Cc2cc(O)ccc2[C@@H](c2c(F)cc(N3CCC4(CCN(CC(=O)N5Cc6cc7c(cc6C5)C(=O)N(C5CCC(=O)NC5=O)C7=O)C4)C3)cc2F)N1CC(C)(F)F (stereo partly drawn) [E 31, 6-(2-(7-(4-((1S,3R)-2-(2,2-difluoropropyl)-6-hydroxy-3-methyl-1,2,3,4-tetrahydroisoquinolin-1-yl)-3,5-difluorophenyl)-2,7-diazaspiro[4.4]nonan-2-yl)acetyl)-2-(2,6-dioxopiperidin-3-yl)-6,7-dihydropyrrolo[3,4-f]isoindole-1,3(2H,5H)-dione] | > 100 nM | – |
| C[C@@H]1Cc2c([nH]c3ccccc23)[C@@H](c2ccc(C3CCC4(CC3)CCN(C(=O)CN3Cc5cc6c(cc5C3)C(=O)N(C3CCC(=O)NC3=O)C6=O)CC4)cc2F)N1CC(F)F (stereo partly drawn) [E 479, 6-(2-(9-(4-((1R,3R)-2-(2,2-difluoroethyl)-3-methyl-2,3,4,9-tetrahydro-1H-pyrido[3,4-b]indol-1-yl)-3-fluorophenyl)-3-azaspiro[5.5]undecan-3-yl)-2-oxoethyl)-2-(2,6-dioxopiperidin-3-yl)-6,7-dihydropyrrolo[3,4-f]isoindole-1,3(2H,5H)-dione] | – | > 100 nM |
| C[C@@H]1Cc2c([nH]c3ccccc23)[C@@H](c2c(F)cc(N3CCC(N4CCC(C(=O)N5Cc6cc7c(cc6C5)C(=O)N(C5CCC(=O)NC5=O)C7=O)CC4)C3)cc2F)N1CC(F)F (stereo partly drawn) [E 110, 6-(1-(1-(4-((1R,3R)-2-(2,2-difluoroethyl)-3-methyl-2,3,4,9-tetrahydro-1H-pyrido[3,4-b]indol-1-yl)-3,5-difluorophenyl)pyrrolidin-3-yl)piperidine-4-carbonyl)-2-(2,6-dioxopiperidin-3-yl)-6,7-dihydropyrrolo[3,4-f]isoindole-1,3(2H,5H)-dione] | > 100 nM | – |
| O=C1CCC(N2C(=O)c3cc4c(cc3C2=O)CN(C(=O)CN2CCC3(CC2)CN(c2ccc([C@@H]5c6ccc(O)cc6CC[C@@H]5c5ccccc5)cc2)C3)C4)C(=O)N1 (mixture of isomers) [E 150, Rac-2-(2,6-dioxopiperidin-3-yl)-6-(2-(2-(4-((1R,2S)-6-hydroxy-2-phenyl-1,2,3,4-tetrahydronaphthalen-1-yl)phenyl)-2,7-diazaspiro[3.5]nonan-7-yl)acetyl)-6,7-dihydropyrrolo[3,4-f]isoindole-1,3(2H,5H)-dione] | > 100 nM | – |
| C[C@@H]1Cc2cc(O)ccc2[C@@H](c2c(F)cc(N3CC4(CCN(C(=O)CN5Cc6cc7c(cc6C5)C(=O)N(C5CCC(=O)NC5=O)C7=O)CC4)C3)cc2F)N1CC(F)F (stereo partly drawn) [E 45, 6-(2-(2-(4-((1S,3R)-2-(2,2-difluoroethyl)-6-hydroxy-3-methyl-1,2,3,4-tetrahydroisoquinolin-1-yl)-3,5-difluorophenyl)-2,7-diazaspiro[3.5]nonan-7-yl)-2-oxoethyl)-2-(2,6-dioxopiperidin-3-yl)-6,7-dihydropyrrolo[3,4-f]isoindole-1,3(2H,5H)-dione] | < 10 nM | – |
| CCC(=C(c1ccc(O)cc1)c1ccc(N2CCC3(CC2)CN(C(=O)CN2CCc4cc5c(cc4C2)C(=O)N(C2CCC(=O)NC2=O)C5=O)C3)cc1)c1ccccc1 (centres unmarked) [E 194, 2-(2,6-dioxopiperidin-3-yl)-6-(2-(7-(4-(1-(4-hydroxyphenyl)-2-phenylbut-1-en-1-yl)phenyl)-2,7-diazaspiro[3.5]nonan-2-yl)-2-oxoethyl)-5,6,7,8-tetrahydro-1H-pyrrolo[3,4-g]isoquinoline-1,3(2H)-dione] | 10 to 100 nM | – |
| O=C1CCC(N2C(=O)c3cc4c(cc3C2=O)CN(CC(=O)N2CC3(CCC(Oc5ccc([C@@H]6c7ccc(O)cc7CC[C@@H]6c6ccccc6)cc5)CC3)C2)C4)C(=O)N1 (stereo partly drawn) [E 223, 2-(2,6-dioxopiperidin-3-yl)-6-(2-(7-(4-((1R,2S)-6-hydroxy-2-phenyl-1,2,3,4-tetrahydronaphthalen-1-yl)phenoxy)-2-azaspiro[3.5]nonan-2-yl)-2-oxoethyl)-6,7-dihydropyrrolo[3,4-f]isoindole-1,3(2H,5H)-dione] | > 100 nM | – |
| C[C@@H]1Cc2c([nH]c3ccccc23)[C@@H](c2ccc(N3CCC(C(=O)N4CCC(N5Cc6cc7c(cc6C5)C(=O)N(C5CCC(=O)NC5=O)C7=O)CC4)CC3)cc2)N1CC(F)F (stereo partly drawn) [E 263, 6-(1-(1-(4-((1R,3R)-2-(2,2-difluoroethyl)-3-methyl-2,3,4,9-tetrahydro-1H-pyrido[3,4-b]indol-1-yl)phenyl)piperidine-4-carbonyl)piperidin-4-yl)-2-(2,6-dioxopiperidin-3-yl)-6,7-dihydropyrrolo[3,4-f]isoindole-1,3(2H,5H)-dione] | 10 to 100 nM | – |
| C[C@@H]1Cc2c([nH]c3ccccc23)[C@@H](c2c(F)cc(C3CCC(CN4CC(CN5Cc6cc7c(cc6C5)C(=O)N(C5CCC(=O)NC5=O)C7=O)C4)CC3)cc2F)N1CC(F)F (stereo partly drawn) [E 283, 6-((1-((4-(4-((1R,3R)-2-(2,2-difluoroethyl)-3-methyl-2,3,4,9-tetrahydro-1H-pyrido[3,4-b]indol-1-yl)-3,5-difluorophenyl)cyclohexyl)methyl)azetidin-3-yl)methyl)-2-(2,6-dioxopiperidin-3-yl)-6,7-dihydropyrrolo[3,4-f]isoindole-1,3(2H,5H)-dione] | > 100 nM | – |
| O=C1CCC(N2Cc3cc4c(cc3C2=O)CN(C(=O)C2CCN(CC3CCN(c5ccc([C@@H]6c7ccc(O)cc7CC[C@@H]6c6ccccc6)cc5)CC3)CC2)C4)C(=O)N1 (stereo partly drawn) [E 284, 3-(6-(1-((1-(4-((1R,2S)-6-hydroxy-2-phenyl-1,2,3,4-tetrahydronaphthalen-1-yl)phenyl)piperidin-4-yl)methyl)piperidine-4-carbonyl)-1-oxo-3,5,6,7-tetrahydropyrrolo[3,4-f]isoindol-2(1H)-yl)piperidine-2,6-dione] | > 100 nM | – |
| C[C@@H]1Cc2c([nH]c3ccccc23)[C@@H](c2cnc(N3CCC4(CCN(C(=O)CN5Cc6cc7c(cc6C5)C(=O)N(C5CCC(=O)NC5=O)C7=O)CC4)CC3)nc2)N1CC(F)F (stereo partly drawn) [E 258, 6-(2-(9-(5-((1R,3R)-2-(2,2-difluoroethyl)-3-methyl-2,3,4,9-tetrahydro-1H-pyrido[3,4-b]indol-1-yl)pyrimidin-2-yl)-3,9-diazaspiro[5.5]undecan-3-yl)-2-oxoethyl)-2-(2,6-dioxopiperidin-3-yl)-6,7-dihydropyrrolo[3,4-f]isoindole-1,3(2H,5H)-dione] | < 10 nM | – |
| C[C@@H]1Cc2c([nH]c3ccccc23)[C@@H](c2c(F)cc(N3CCN(CCN4Cc5cc6c(cc5C4)C(=O)N(C4CCC(=O)NC4=O)C6)CC3)cc2F)N1CC(F)F (stereo partly drawn) [E 54, 3-(6-(2-(4-(4-((1R,3R)-2-(2,2-difluoroethyl)-3-methyl-2,3,4,9-tetrahydro-1H-pyrido[3,4-b]indol-1-yl)-3,5-difluorophenyl)piperazin-1-yl)ethyl)-1-oxo-3,5,6,7-tetrahydropyrrolo[3,4-f]isoindol-2(1H)-yl)piperidine-2,6-dione] | 10 to 100 nM | – |
| C[C@@H]1Cc2c([nH]c3ccccc23)[C@@H](c2c(F)cc(N3CC4(CCCN(C(=O)CN5Cc6cc7c(cc6C5)C(=O)N(C5CCC(=O)NC5=O)C7)C4)C3)cc2F)N1CC(F)F (some centres unmarked) [E 69] | > 100 nM | – |
| O=C1CCC(N2Cc3cc4c(cc3C2=O)CN(CC2CN(CC3CCN(c5ccc([C@@H]6c7ccc(O)cc7CC[C@@H]6c6ccccc6)cc5)CC3)C2)C4=O)C(=O)N1 (stereo partly drawn) [E 504, 2-(2,6-dioxopiperidin-3-yl)-6-((1-((1-(4-((1R,2S)-6-hydroxy-2-phenyl-1,2,3,4-tetrahydronaphthalen-1-yl)phenyl)piperidin-4-yl)methyl)azetidin-3-yl)methyl)-2,3,6,7-tetrahydropyrrolo[3,4-f]isoindole-1,5-dione] | – | > 100 nM |
| O=C1CCC(N2C(=O)c3cc4c(cc3C2=O)CN([C@H]2CC[C@H](NC3CCN(c5ccc([C@@H]6c7ccc(O)cc7CC[C@@H]6c6ccccc6)cc5)CC3)CC2)C4)C(=O)N1 (stereo partly drawn) [E 335, 2-(2,6-dioxopiperidin-3-yl)-6-((1R,4r)-4-((1-(4-((1R,2S)-6-hydroxy-2-phenyl-1,2,3,4-tetrahydronaphthalen-1-yl)phenyl)piperidin-4-yl)amino)cyclohexyl)-6,7-dihydropyrrolo[3,4-f]isoindole-1,3(2H,5H)-dione] | > 100 nM | – |
| C[C@@H]1Cc2c([nH]c3ccccc23)[C@@H](c2cnc(N3CCC4(CCN(C(=O)CN5Cc6cc7c(cc6C5)C(=O)N(C5CCC(=O)NC5=O)C7=O)CC4)CC3)nc2)N1CC(F)(F)F (stereo partly drawn) [E 254, 2-(2,6-dioxopiperidin-3-yl)-6-(2-(9-(5-((1R,3R)-3-methyl-2-(2,2,2-trifluoroethyl)-2,3,4,9-tetrahydro-1H-pyrido[3,4-b]indol-1-yl)pyrimidin-2-yl)-3,9-diazaspiro[5.5]undecan-3-yl)-2-oxoethyl)-6,7-dihydropyrrolo[3,4-f]isoindole-1,3(2H,5H)-dione] | < 10 nM | – |
| C[C@@H]1Cc2c([nH]c3ccccc23)[C@@H](c2c(F)cc(N3CCC(N4CCN(CC(=O)N5Cc6cc7c(cc6C5)C(=O)N(C5CCC(=O)NC5=O)C7)CC4)CC3)cc2F)N1CC(F)F (stereo partly drawn) [E 96, 3-(6-(2-(4-(1-(4-((1R,3R)-2-(2,2-difluoroethyl)-3-methyl-2,3,4,9-tetrahydro-1H-pyrido[3,4-b]indol-1-yl)-3,5-difluorophenyl)piperidin-4-yl)piperazin-1-yl)acetyl)-1-oxo-3,5,6,7-tetrahydropyrrolo[3,4-f]isoindol-2(1H)-yl)piperidine-2,6-dione] | < 10 nM | – |

Source: US20240190880A1 (THE REGENTS OF THE UNIVERSITY OF MICHIGAN, priority 2021, published 2024)
